Test results published in ChEMBL document CHEMBL1151392, “Structure-activity relations of polyfunctional diterpenes of the daphnane type. I. Revised structure for resiniferatoxin and structure-activity relations of resiniferonol and some of its esters” (J Nat Prod, 1982).

How the values were obtained:
Mus musculus [1] = species on record: Mus musculus; assay: Toxicity in NMRI mouse assessed as irritant dose 50 causing ear redness after 5 hours assessed per ear; format: organism-based; settings: in vivo, topical_or_ocular
Mus musculus [2] = species on record: Mus musculus; assay: Toxicity in NMRI mouse assessed as irritant dose 50 causing ear redness after 24 hours assessed per ear; format: organism-based; settings: in vivo

For `C=C(C)[C@]12C[C@@H](C)[C@@]34O[C@](CCCCCCCCCCCCC)(O[C@@H]1[C@@H]3C=C(COC(=O)Cc1cc(OC)cc(OC)c1)C[C@]1(O)C(=O)C(C)=C[C@@H]41)O2`, the Activity (Mus musculus [1]) was > 5 nmol and the Activity (Mus musculus [2]) was > 5 nmol.

In the case of `C=C(C)[C@]12C[C@@H](C)[C@@]34O[C@](Cc5ccccc5)(O[C@@H]1[C@@H]3C=C(COC(=O)Cc1ccc(OC)c(OC)c1)C[C@]1(O)C(=O)C(C)=C[C@@H]41)O2` [RESINIFERATOXIN METHYL ETHER], the Activity (Mus musculus [1]) is reported as 4.7 ×10⁻⁴ nmol and the Activity (Mus musculus [2]) is reported as > 20 nmol.

`C=C(C)[C@]12C[C@@H](C)[C@@]34O[C@](Cc5ccccc5)(O[C@@H]1[C@@H]3C=C(CO)C[C@]1(O)C(=O)C(C)=C[C@@H]41)O2` was tested, and the Activity (Mus musculus [1]) was 1 nmol and the Activity (Mus musculus [2]) was > 20 nmol.

For `C=C(C)[C@]12C[C@@H](C)[C@@]34O[C@](C)(O[C@@H]1[C@@H]3C=C(COC(=O)Cc1cc(OC)cc(OC)c1)C[C@]1(O)C(=O)C(C)=C[C@@H]41)O2`, the Activity (Mus musculus [1]) was 2.6 ×10⁻² nmol and the Activity (Mus musculus [2]) was > 5 nmol.

With `C=C(C)[C@]12C[C@@H](C)[C@@]34O[C@](Cc5ccccc5)(O[C@@H]1[C@@H]3C=C(COC(=O)c1ccccc1)C[C@]1(O)C(=O)C(C)=C[C@@H]41)O2` the Activity (Mus musculus [1]) was 1.2 ×10⁻² nmol and the Activity (Mus musculus [2]) was > 10 nmol.

For `C=C(C)[C@]1(O)C[C@@H](C)[C@@]2(O)[C@@H](C=C(CO)C[C@]3(O)C(=O)C(C)=C[C@@H]23)[C@H]1O` [RESINIFERONOL], the Activity (Mus musculus [1]) was > 100 nmol and the Activity (Mus musculus [2]) was > 100 nmol.

`C=C(C)[C@]12C[C@@H](C)[C@@]34O[C@](Cc5ccccc5)(O[C@@H]1[C@@H]3C=C(COC(=O)Cc1ccccc1)C[C@]1(O)C(=O)C(C)=C[C@@H]41)O2` was tested, and the Activity (Mus musculus [1]) was 1.7 ×10⁻³ nmol and the Activity (Mus musculus [2]) was > 10 nmol.

`C=C(C)[C@]12C[C@@H](C)[C@@]34O[C@](CCCCCCCCCCCCC)(O[C@@H]1[C@@H]3C=C(CO)C[C@]1(O)C(=O)C(C)=C[C@@H]41)O2` was tested, and the Activity (Mus musculus [1]) was > 30 nmol and the Activity (Mus musculus [2]) was 0.8 nmol.

`C=C(C)[C@]12C[C@@H](C)[C@@]34O[C@](Cc5ccccc5)(O[C@@H]1[C@@H]3C=C(COC(=O)CCCCC)C[C@]1(O)C(=O)C(C)=C[C@@H]41)O2` was tested, and the Activity (Mus musculus [1]) was 8.9 ×10⁻² nmol and the Activity (Mus musculus [2]) was > 10 nmol.

`C=C(C)[C@]1(O)C[C@@H](C)[C@@]2(O)[C@@H](C=C(COC(=O)Cc3ccccc3)C[C@]3(O)C(=O)C(C)=C[C@@H]23)[C@H]1O` was tested, and the Activity (Mus musculus [1]) was > 100 nmol and the Activity (Mus musculus [2]) was > 100 nmol.

For `C=C(C)[C@]12C[C@@H](C)[C@@]34O[C@](CCCCCCCCCCCCC)(O[C@@H]1[C@@H]3C=C(COC(=O)CCCCCCCCCCCCC)C[C@]1(O)C(=O)C(C)=C[C@@H]41)O2`, the Activity (Mus musculus [1]) was > 60 nmol and the Activity (Mus musculus [2]) was > 60 nmol.

With `COC(=O)Cc1ccc(O)c(OC)c1` the Activity (Mus musculus [1]) was 25 nmol and the Activity (Mus musculus [2]) was > 100 nmol.

`C=C(C)[C@]12C[C@@H](C)[C@@]34O[C@](Cc5ccccc5)(O[C@@H]1[C@@H]3C=C(COC(C)=O)C[C@]1(O)C(=O)C(C)=C[C@@H]41)O2` was tested, and the Activity (Mus musculus [1]) was > 10 nmol and the Activity (Mus musculus [2]) was > 10 nmol.

For `C=C(C)[C@]12C[C@@H](C)[C@@]34O[C@](Cc5ccccc5)(O[C@@H]1[C@@H]3C=C(COC(=O)Cc1ccc(O)c(OC)c1)C[C@]1(O)C(=O)C(C)=C[C@@H]41)O2` [RESINIFERATOXIN], the Activity (Mus musculus [1]) was 1.6 ×10⁻⁵ nmol and the Activity (Mus musculus [2]) was > 20 nmol.

For `C=C(C)[C@]12C[C@@H](C)[C@@]34O[C@](Cc5ccccc5)(O[C@@H]1[C@@H]3C=C(COC(=O)Cc1cc(OC)cc(OC)c1)C[C@]1(O)C(=O)C(C)=C[C@@H]41)O2`, the Activity (Mus musculus [1]) was 6.2 ×10⁻⁴ nmol and the Activity (Mus musculus [2]) was > 20 nmol.

With `C=C(C)[C@]12C[C@@H](C)[C@@]34O[C@](C)(O[C@@H]1[C@@H]3C=C(CO)C[C@]1(O)C(=O)C(C)=C[C@@H]41)O2` the Activity (Mus musculus [1]) was > 100 nmol and the Activity (Mus musculus [2]) was 12.9 nmol.
